# In US20260009085A1, “METHODS AND COMPOSITIONS FOR THE DIAGNOSIS AND TREATMENT OF CANCER” (Chengdu Anticancer Bioscience, Ltd., priority 2023, published 2026):
# Key:
# NCI-H23 cells = test: Immunofluorescent analysis of AURKB mis-localization (6 hours) and polyploidy (72 hours); type: cell-based, human; conditions: 6 hours or 72 hours
# Description: The proportion of cells with AURKB mis-localization was measured to assess the function of MKLP2 (FIG. 3C). Immunofluorescent analysis of localization of kinetochore proteins AURKB and CREST was determined. Scale bar=10 μm. FIG. 3D is an immunoblot depicting the results of an experiment in which NCI-H23 cells were transiently transfected with MKLP2 siRNA. MKLP2 knockdown efficiency was assayed by immunoblot blot analysis 72 hours after transfection. FIG. 3E are graphs depicting the proportion of cells with AURKB mis-localization after treatment with MKLP2 siRNA after 6 hours of exposure and the proportion of polyploid cells after 72 hours.
# Compounds were considered positive for the induction of polyploidy when the percentage of polyploid cells in the interphase population, was ≥5% (with deduction of basal level of polyploid cells) at 72 hours after initiation of treatment (FIG. 3A right panel, FIG. 3B right panel, and FIG. 3E right panel). Polyploid cells were defined as those with multinucleated nuclei, visible upon DAPI staining. The basal level of spontaneous polyploid cells with the screening cell line was less than 1%.
# Immunofluorescent (IF) analysis was used to assess enzymatic activity (FIG. 3A left panel, FIG. 3B left panel, and FIG. 3E left panel) and localization of mitotic regulators. […]
# RPE-MYC = test: Model cell screen: CPPC complex localization and cell death, RPE-MYC; type: cell-based, human
# Description: In the model screening cell lines, there was an indistinguishable threshold concentration of approximately 20 nM, which was required to show disruption of the CPPC complex by IHC at the spindle midzone and equatorial cortex of anaphase cells, indicating a failure in CPPC relocation. This similarity in the threshold effective concentration for target inhibition is, therefore, not influenced by overexpression of MYC. […] Similar data with other MYC-SL compounds were observed.
smiles,measurement,setting,value
CNC(=O)c1cc(OC)cc(Oc2ncccc2-c2ccnc(C)c2)c1 [LG157],"mitotic defects (AURKB mis-localization, polyploidy)",NCI-H23 cells,"elicit mitotic defects similar to those seen in cells treated with a known mitotic disruptor, paprotrain"
same,cell death,RPE-MYC,extensive cell death occurred in RPE-MYC
same,threshold concentration required to show disruption of the CPPC complex,RPE-MYC; IHC at spindle midzone and equatorial cortex of anaphase cells,approximately 20 nM
